Data reported in US20240390301A1, “COMBINATIONS OF PERIPHERAL 5-HT2A RECEPTOR ANTAGONISTS AND CENTRAL 5-HT2A RECEPTOR AGONISTS” (priority 2021, published 2024).
Read-outs that look alike come from different tables or passages of the source.

Assays:
5-HT2A receptor = target: T1, 5-HT2A receptor (Homo sapiens, UniProt P28223); experiment: 5-HT2A radioligand binding with [3H]ketanserin
T1 construct: WuXi AppTec (Hong Kong) Limited (contract laboratory that ran the assay)
Method: The binding affinities of key peripheral 5-HT2A receptor antagonists, as well as reference 5-HT2A agonists, at the ketanserin binding site of the 5-HT2A receptor and the mesulergine binding site of the 5-HT2C receptor were determined in radioligand binding experiments.
Method. Affinity of the test compounds for the 5-HT2A and 5-HT2C receptors was determined in radioligand binding experiments with [^3H] ketanserin and [^3H] mesulergine, respectively, by WuXi AppTec (Hong Kong) Limited, using methods adapted from the literature and under conditions described in Table 1.

5-HT2C receptor = target: T2, 5-HT2C receptor (Homo sapiens, UniProt P28335); experiment: biochemical; type: binding
T2 construct: WuXi AppTec (Hong Kong) Limited (contract laboratory that ran the assay)
T2 sequence (P28335 33-458): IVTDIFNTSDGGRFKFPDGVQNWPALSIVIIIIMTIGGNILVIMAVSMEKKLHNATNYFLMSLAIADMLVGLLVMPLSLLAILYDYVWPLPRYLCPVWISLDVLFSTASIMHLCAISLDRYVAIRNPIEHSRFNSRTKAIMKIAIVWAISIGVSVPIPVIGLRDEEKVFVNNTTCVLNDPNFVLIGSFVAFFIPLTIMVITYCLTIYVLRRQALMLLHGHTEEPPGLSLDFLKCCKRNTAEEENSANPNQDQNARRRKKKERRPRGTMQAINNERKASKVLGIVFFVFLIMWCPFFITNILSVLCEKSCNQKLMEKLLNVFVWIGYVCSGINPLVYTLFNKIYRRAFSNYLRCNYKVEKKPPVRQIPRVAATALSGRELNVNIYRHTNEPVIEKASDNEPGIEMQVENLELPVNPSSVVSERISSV

in vitro [1] = experiment: in vitro
Method: Method 1. Aliquots of 50 μL loading matrix containing test compound (2 μM final incubation concentration) or control compound in triplicate were transferred to a Sample Collection Plate. The samples were matched with opposite blank buffer to obtain a final volume of 100 μL, with a volume ratio of matrix: Dialysis Buffer of 1:1 (v:v) in each well. Stop solution (200 ng/ml tolbutamide and 200 ng/mL labetalol in ACN) was added to these TO samples of test compound and control compound. The plate was sealed and shaken at 800 rpm for 10 min. An aliquot of 100 μL of the loading matrix containing test compound or control compound was transferred to the donor side of each dialysis well in triplicate and 100 μL of the Dialysis Buffer was loaded to the receiver side of the well. Then the plate was rotated at approximately 100 rpm in a humidified incubator with 5% CO2 at 37±1° C. for 4 hours. At the end of the dialysis, aliquots of 50 μL samples from the buffer side and matrix side of the dialysis device were taken into new 96-well plates (Sample Collection Plates). An equal volume of opposite blank matrix (buffer or matrix) in each sample was added to reach a final volume of 100 μL, with volume ratio of matrix: Dialysis Buffer of 1:1 (v:v) in each well. All samples were further processed by protein precipitation before LC-MS/MS analysis.
Method 2. Aliquots (200 μL) of positive controls and test compounds at 5 μM (triplicates) were separately added to the plasma chamber and […] of phosphate buffered saline (pH 7.4) was added to the buffer chamber of the inserts. After sealing the rapid equilibrium dialysis (RED) device with an adhesive film, dialysis was performed in an incubator at 37° C. with shaking at 100 RPM for 4 hours. Aliquots (50 μL) of warfarin and test compounds were added to four 0.5 mL micro fuse tubes. Two aliquots were frozen immediately (0-minute sample). The other two aliquots were incubated at 37° C. for 4 hours along with the RED device. Following dialysis, an aliquot of 50 μL was removed from each well (both plasma and buffer side) and diluted with an equal volume of opposite matrix (dialyzed with the other matrix) to nullify the matrix effect. Similarly, 50 μL of buffer was added to recovery and stability samples. An aliquot of 100 μL was used for LC-MS/MS analysis following protein precipitation with ACN containing internal standard.

[2] = Method 2: 3 times diluted homogenate, 37° C.
Method: Method 1. Pooled frozen rat brain homogenate was thawed in a water bath at 37° C. prior to the experiment. Using an Apricot automation workstation, 98 μL/well of blank brain homogenate or 100 mM PBS were added to all 96-well reaction plates (Blank, T0, T10, T30, T60, and T120). […] All reaction plates containing mixtures of compound and brain homogenate were incubated at 37° C. in a water bath for up to 120 minutes. At the end of incubation, 500 uL of stop solution (200 ng/mL tolbutamide and 200 ng/mL labetalol in ACN) was added to precipitate protein and mixed thoroughly for 20 minutes at 4° C. After centrifugation at 4,000 rpm and 4° C. for 20 minutes, an Apricot automation workstation was used to transfer 150 μL of supernatant from each reaction plate to its corresponding bioanaylsis plate, which was shaken for 10 minutes prior to LC-MS/MS analysis.
Method 2. Rat brain tissue homogenate samples were prepared by diluting one volume of whole rat brain tissue with two volumes of dialysis buffer (phosphate buffered saline pH 7.4-0.1 M sodium phosphate and 0.15 M sodium chloride) to yield 3 times diluted homogenate. Test compounds were spiked into 400 μL aliquots (n=3) of rat brain homogenate and the resulting mixtures were incubated at 37° C. […] An aliquot (100 μL) of each sample was transferred to a 96-well deep plate and analyzed by LC-MS/MS.

Rat plasma stability = type: in vitro ADME; settings: Method 2: 5 μM, 37° C.
Method: The results were used to confirm that the plasma protein binding results were not confounded by poor plasma stability.
Method 1. […] Plasma was centrifuged at 4,000 rpm for 5 min and any clots were remove.
Method 2. […]

in vitro [3] = experiment: in vitro; parameters: fraction unbound at 4 h: dose or concentration left out as unconfirmed; settings: rat, brain homogenate
Method: Various putative peripheral 5-HT2A receptor antagonists were tested for binding to rat brain homogenate via equilibrium dialysis, with the results summarized in Table 7.
Method 1. Rat brain homogenate was thawed in a water bath at room temperature and then incubated at 37° C. for 10 min before use. Aliquots of 50 μL of loading matrix containing test compound (2 μM final incubation concentration) or control compound in triplicate were transferred to a Sample Collection Plate. The samples were matched with opposite blank buffer to obtain a final volume of 100 μL with a volume ratio of matrix: Dialysis Buffer of 1:1 (v:v) in each well. The stop solution (200 ng/mL tolbutamide and 200 ng/ml labetalol in ACN) was immediately added to these T0 samples of test compound and control compound. The plate was sealed and shaken at 800 rpm for 10 min. T0 samples were stored at 2-8° C. pending further processing along with other post-dialysis samples. An aliquot of 100 μL of the loading matrix containing test compound or control compound was transferred to the donor side of each dialysis well in triplicate and 100 μL of the Dialysis Buffer was loaded to the receiver side of the well. Then the plate was rotated at approximately 100 rpm in a humidified incubator with 5% CO2 at 37±1° C. for 4 hours. At the end of the dialysis. aliquots of 50 μL from the buffer side and matrix side of the dialysis device were taken into new 96-well plates (Sample Collection Plates). An equal volume of opposite blank matrix (buffer or matrix) in each sample was added to reach a final volume of 100 μL, with a volume ratio of matrix: Dialysis Buffer of 1:1 (v:v) in each well. All samples were further processed by protein precipitation before LC-MS/MS analysis.
Method 2. Aliquots (200 μL) of test compounds and positive controls at […] in rat brain homogenate (triplicates) were added to the rapid equilibrium dialysis (RED) chamber of dialysis inserts. A 350 μL aliquot of dialysis buffer was added to the buffer chamber of the inserts. After sealing the RED device with an adhesive film, dialysis was conducted at 37° C. with shaking at 100 RPM for 4 hours. Following dialysis, an aliquot of 50 μL was removed from each well (brain homogenate and buffer) and diluted with an equal volume of opposite matrix to nullify the matrix effect. Similarly, buffer was added to recovery and stability samples. An aliquot of 100 μL was used for LC-MS/MS analysis following protein precipitation with ACN containing internal standard.

in vivo [4] = settings: metabolite after 10 mg/kg SC of parent (sarpogrelate or Compound 14a)
Method: The pharmacokinetics of peripheral 5-HT2A antagonists were studied in the plasma (Tables 11 and 12) and brains (Table 13 and 14) of rats after subcutaneous (SC) dosing. The results were used to interpret the in vivo pharmacological results.
Animals. Male Sprague Dawley rats, aged 8-12 weeks. were used in these studies. Four rats were housed in each cage. […] Temperature and humidity were recorded by an auto-controlled data logger system. All animals were provided laboratory rodent diet and were fasted for 4 h pre-dose and 2 h post-dose. Reverse osmosis water treated with ultraviolet light was provided ad libitum. Animals were randomly assigned to treatment groups.
Drugs and Drug Administration. Test compounds were prepared as described above or commercially obtained. They were administered subcutaneously (SC) at a dose of 1 or 10 mg/kg (as indicated, calculated based on the free base) and at a volume of 5 mL/kg body weight.
Sample Collection and Bioanalysis. […] SC. […] For both studies, immediately after blood collection, plasma was harvested by centrifugation at 4,000 rpm for 10 min at 4° C. and samples were stored at −70±10° C. until bioanalysis. Following blood collection, animals were immediately sacrificed, the abdominal vena-cava was cut open, and the whole body was perfused from the heart using 10 mL of normal saline, and brain samples were collected from all animals. After isolation, brain samples were rinsed three times in ice-cold normal saline (for 5-10 seconds/rinse using ˜5-10 mL normal saline in disposable petri dish for each rinse) and dried on blotting paper. Brain samples were homogenized using ice-cold phosphate-buffered saline (pH 7.4). Total homogenate volume was three times the tissue weight. All homogenates were stored at −70±10° C. until bioanalysis. For bioanalysis, 25 μL aliquots of plasma/brain study samples or spiked plasma/brain calibration standards were added to individual pre-labeled micro-centrifuge tubes followed by 100 μL of an internal standard solution (glipizide, 500 ng/ml in acetonitrile) except for blanks, where 100 μL of acetonitrile was added. Samples were vortexed for 5 minutes and then centrifuged for 10 minutes at 4,000 rpm at 4° C. Following centrifugation, 100 μL of each clear supernatant was transferred to a 96-well plate and analyzed with a fit-for-purpose LC-MS/MS method, with authentic samples of each analyte used for calibration and identification.

in vivo [5] = type: in vivo, rat
Method: The ratio of free brain concentration to free plasma concentration was calculated at 0.167 h and 0.5 h post administration for each compound using the data presented in the above examples and the following formula.
A smaller value for the free brain: free plasma ratio indicates greater peripheral restriction and therefore, better suitability for the methods of the present disclosure.

[6] = HEK293 stable cell line, 2 nM [3H]mesulergine, 1 h, 25° C., read-out: 5-HT2C Ki (nM) ([3H]mesulergine)
[7] = HEK293 stable cell line, 1 nM [3H]ketanserin, 1 h, 25° C., read-out: 5-HT2A Ki (nM) ([3H]ketanserin)
[8] = 10 mg/kg PK data, quantified as metabolite in PK studies of sarpogrelate and Compound 14a

T1 sequence (P28223 whole entry): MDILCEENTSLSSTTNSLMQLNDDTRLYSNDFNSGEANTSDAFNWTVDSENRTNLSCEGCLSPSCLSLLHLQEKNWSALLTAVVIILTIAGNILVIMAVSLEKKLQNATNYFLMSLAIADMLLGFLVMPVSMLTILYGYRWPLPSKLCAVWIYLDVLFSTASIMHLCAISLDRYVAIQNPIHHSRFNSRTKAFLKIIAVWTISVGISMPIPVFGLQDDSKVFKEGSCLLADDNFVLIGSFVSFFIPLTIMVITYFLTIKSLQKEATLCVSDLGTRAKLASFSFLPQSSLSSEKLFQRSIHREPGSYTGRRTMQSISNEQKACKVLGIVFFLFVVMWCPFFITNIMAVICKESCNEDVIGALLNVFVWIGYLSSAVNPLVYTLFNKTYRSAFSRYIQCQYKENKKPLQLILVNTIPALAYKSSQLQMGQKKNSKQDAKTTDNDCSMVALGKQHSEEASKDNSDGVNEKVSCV

Q: With `CCN(C)CCc1c[nH]c2cccc(O)c12` [Compound 4-HO-MET, 4-hydroxy-N-methyl-N-ethyltryptamine] as the compound, how does the Ki (5-HT2A receptor) read?
A: Its Ki is 106 nM.

Q: Which Ki (5-HT2C receptor; [6]) does the source give for `CCN(C)CCc1c[nH]c2ccc(F)cc12` [Compound 5-F-MET, 5-fluoro-N-methyl-N-ethyltryptamine] here?
A: The Ki was 59 nM.

Q: And the Ki (5-HT2A receptor)?
A: Its Ki is 140 nM.

Q: With `CC(C)COc1ccc(CNC(=O)N(Cc2ccc(F)cc2)C2CCNCC2)cc1.Cl` [Compound 7, 1-(4-fluorobenzyl)-3-(4-isobutoxybenzyl)-1-(piperidin-4-yl)urea hydrochloride] as the compound, how does the fraction unbound at 4 h, 5 μM (in vitro [1]; rat, plasma, pH 7.4) read?
A: The fraction unbound at 4 h, 5 μM was 0.038.

Q: What about the “% Remaining (120 minutes), rat brain homogenate” value [2] of the same compound?
A: Its value is 69%.

Q: What about the “% Remaining (120 minutes), rat plasma” value (Rat plasma stability) of the same compound?
A: Its value is 96%.

Q: And the fraction unbound at 4 h (in vitro [3])?
A: Its fraction unbound at 4 h is 0.002.

Q: And the “Mean brain concentration 0.167 h (ng/g), analyzed as metabolite” value (in vivo [4]; 0.167 h)?
A: Its value is “BLQ”.

Q: What about the “Mean brain concentration 0.5 h (ng/g), analyzed as metabolite” value (in vivo [4]; 0.5 h) of the same compound?
A: The value was “BLQ”.

Q: With `COc1cc(CC(C)N)c(OC)cc1I` (stereo not drawn) [DOI, 4-iodo-2,5-dimethoxyamphetamine] as the compound, how does the Ki (5-HT2C receptor) read?
A: Its Ki is 70 nM.

Q: Which results are given for `CCCc1cc(OC)c(CC(C)N)cc1OC` (stereo not drawn) [DOPR, 2,5-dimethoxy-4-propylamphetamine]?
A: Ki (5-HT2C receptor; [6]): 16.6 nM; Ki (5-HT2A receptor; [7]): 17.6 nM

Q: Which results are given for `COc1cc(CCN)cc(OC)c1OC` [mescaline]?
A: Ki (5-HT2C receptor; [6]): > 1880 nM; Ki (5-HT2A receptor; [7]): 17400 nM

Q: For `COc1cccc(CCc2ccccc2OCC(O)CN(C)C)c1` (stereo not drawn) [sarpogrelate M1], which “Free Brain:Free Plasma (0.167 h), metabolite” value (in vivo [5]; [8]) is on record?
A: The value was 0.52.

Q: And the “Free Brain:Free Plasma (0.5 h), metabolite” value (in vivo [5]; [8])?
A: Its value is 1.31.

Q: What about the “Peripheral restriction / brain penetration” value (in vivo [5]; from free brain:free plasma ratios) of the same compound?
A: The value was “substantial brain penetration”.

Q: And the “Mean % bound (rat plasma protein binding)” value (in vitro [1]; Method 2: RED, 5 μM, 4 hours, 37° C.)?
A: The value was 97.2%.

Q: What about the “% Remaining (120 minutes), rat brain homogenate” value [2] of the same compound?
A: Its value is 84%.

Q: What about the “% Remaining (120 minutes), rat plasma” value (Rat plasma stability) of the same compound?
A: The value was 94%.

Q: What about the “Mean brain concentration 0.167 h (ng/g), analyzed as metabolite” value (in vivo [4]; 0.167 h) of the same compound?
A: Its value is 32.7 ng/g.

Q: What about the “Mean brain concentration 0.5 h (ng/g), analyzed as metabolite” value (in vivo [4]; 0.5 h) of the same compound?
A: Its value is 97.4 ng/g.

Q: And the “Mean plasma concentration 0.167 h (ng/mL), analyzed as metabolite” value (in vivo [4]; plasma, 0.167 h)?
A: The value was 54.1 ng/mL.

Q: And the “Mean plasma concentration 0.5 h (ng/mL), analyzed as metabolite” value (in vivo [4]; plasma, 0.5 h)?
A: The value was 63.6 ng/mL.
